Measured values from patent US20230114207A1, “THE COMBINATION OF CYCLIN DEPENDENT KINASE 7 INHIBITOR AND IMMUNOTHERAPY FOR TREATMENT OF CANCER” (Dana-Farber Cancer Institute, Inc., priority 2019, published 2023).

What was measured:
[1] = tested on: Cyclin K, the obligate binding partner of CDK12/13; assay: Competitive pulldown assay (Bio-THZ1), Cyclin K; type: cell-based, mouse; conditions: SCLC cells treated 6 hours
Method: Bio-THZ1 pulldown experiments followed by western blotting of enriched proteins was performed as described in Kwiatkowski, et al., Nature, 2014, 511, 616-620. Briefly, cells were treated with YKL-5-124 or DMSO for 6 hr (in vitro) or 72 hr (in vivo). Following treatment, cells were washed twice with cold PBS and then lysed in the following lysis buffer: 50 mM TrisHCI pH 8.0, 150 mM NaCl, 1% NP-40, 5 mM EDTA, 1 mM DTT, and protease/phosphatase cocktails. Following clearance, lysates were treated with biotinylated THZ1 for pulldown overnight at 4° C. Lysates were further incubated at room temperature for 3 hr to increase the efficiency of covalent bond formation. Lysates were then incubated with streptavidin agarose for pulldown for an additional 2-3 hr at 4° C. Agarose beads were washed 5 times with lysis buffer and then boiled in 2×SDS at 95° C. SDS-page resolved precipitated proteins were probed for the indicated proteins.

RPP-MYC orthotopic model = assay: Treatment study in RPP-MYC orthotopic SCLC model; type: in vivo, mouse
Method: All animal studies were reviewed and approved by the Institutional Animal Care and Use Committee (IACUC) at the New York University Langone Health (NYULH) and Dana-Farber Cancer Institute (DFCI). From 6 weeks of age, mice were induced with adenovirus-Cre recombinase (Ad-Cre) by intratracheal intubation to allow cre-lox-mediated recombination of floxed Rb1, p53 and p130 alleles. For syngeneic orthotopic models, ultrasound-guided transthoracic injection was performed using 200,000 RPP631, RP or RPP-MYC cells in 30 μL PBS directly into the lung of 6 to S-week-old C57BL/6 (Jackson Laboratory, Stock No: 000664). For OT-IT cell assay, OT-I mice were purchased from the Jackson Laboratory (Stock No: 003S31). Both males and females mice were used and all mice were maintained in accordance with the respective NYULH and DFCI on the care, welfare, and treatment of laboratory animals. […]
Animals were anesthetized with isoflurane to perform MRI of the lung field using BioSpec USR70/30 horizontal bore system (Bruker) to scan 24 consecutive sections. Tumor volumes within the whole lung were quantified using 3-D slicer software to reconstruct MRI volumetric measurements as described previously. […]

C=CC(=O)Nc1ccc(C(=O)Nc2n[nH]c3c2CN(C(=O)N[C@H](CN(C)C)c2ccccc2)C3(C)C)cc1 [YKL-5-124]
block of pulldown of Cyclin K [1]: failed to block | tumor response / tumor growth (MRI tumor volume) (RPP-MYC orthotopic model): notably delayed tumor growth
